Reference: patent US10278957B2, “Opioid agonist peptides and uses thereof” (Protagonist Therapeutics, Inc., priority 2017, dated 2019)

Columns and labels:
[1] = SIF assay (stability in simulated intestinal fluid); format: in vitro ADME; conditions: for half-life at 20 μM: simulated intestinal fluid (SIF) with pancreatin, simulated intestinal fluid, pH 6.8, pancreatin, 37° C.
Description: SIF was prepared by adding 6.8 g of monobasic potassium phosphate and 10.0 g of pancreatin to 1.0 L of water. After dissolution, the pH was adjusted to 6.8 using NaOH. DMSO stocks (2 mM) were prepared for each of the opioid agonist peptides. Aliquots of the DMSO solutions were dosed into […], each containing 0.5 mL of SIF, which was pre-warmed to 37° C. The final opioid agonist peptide concentration was 20 μM. The vials were kept in a benchtop Thermomixer® for the duration of the experiment. At each timepoint (0, 5, 10, 20, 40, 60, or 360 minutes or 24 hours), 1.0 mL of acetonitrile containing 1% formic acid was added to one vial to terminate the reaction. Samples were stored at 4° C. until the end of the experiment. After the final timepoint was sampled, the tubes were mixed and then centrifuged at 3,000 rpm for 10 minutes. Aliquots of the supernatant were removed, diluted 1:1 into distilled water containing an internal standard, and analyzed by LCMS/MS. The percent of the opioid agonist peptide remaining at each timepoint was calculated based on the peak area response ratio of opioid agonist peptide to the internal standard. Time 0 was set to 100%, and all later timepoints were calculated relative to time 0. Half-lives were calculated by fitting to a first-order exponential decay equation using Graph pad.

[2] = tested on: gastro intestinal motility; experiment: Gastro Intestinal Motility Charcoal Transit Assay; format: in vivo
Description: Animals were treated with 0.2 mL croton oil 96 and 72 hours before the gastro intestinal transit (GIT) assay. Animals were fasted overnight prior to charcoal meal dosing. Test and control articles were administered (PO, IP) followed by an oral dose of aqueous suspension of 5% charcoal in 10% gum arabic. […] Charcoal meal test were given 30 min post-test article dose. Twenty minutes after administration of the charcoal test meal, animals were euthanized via CO2 inhalation followed by cervical dislocation, and the small and large intestines were examined to evaluate GI transit and motility. GI transit is expressed as a percentage of the distance traveled by the charcoal test meal divided by the length of the intestine.

visceral pain (writhing) = experiment: Acetic Acid or Acetylcholine Writhing Assay; format: in vivo; conditions: PO
Description: Animals were fasted overnight prior to the start of the assay. Test and control article doses, ranging from 3-50 mg/kg, were administered (PO) followed by an IP injection of acetic acid (1.0%) or acetylcholine (10 mg/kg), and immediately placed in a viewing chamber. […] Writhing (abdominal constriction) was defined as a contraction of the abdominal musculature accompanied by arching of the back and extension of the limbs. Latency to first writhe and total number of writhes were recorded. Test articles included oral eluxadoline and two illustrative opioid peptides disclosed herein, Peptide A and Peptide D; and control articles included loperamide and morphine

μ-opioid receptor (MOR) = target: T1, μ-opioid receptor (MOR) (Homo sapiens, UniProt P35372); experiment: MOR agonist cAMP assay (HitHunter cAMP, forskolin-stimulated); format: cell-based
T1 construct: host or cells: cAMP Hunter CHO-K1 OPRM1 Gαi cell line
How it was run: (§1)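 CHO-K1 Gαi cells expressing OPRM1 or OPRD1 were exposed 30 min at 37° C to 11-point threefold agonist dilutions, in duplicate, with 20 uM forskolin final. cAMP quantified by EFC chemiluminescent competitive immunoassay against cAMP standards. EC50 by four-parameter Hill nonlinear regression.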

δ-opioid receptor (DOR) = target: T2, δ-opioid receptor (DOR) (Homo sapiens, UniProt P41143); experiment: DOR agonist cAMP assay (HitHunter cAMP, forskolin-stimulated); format: cell-based
T2 construct: host or cells: cAMP Hunter CHO-K1 OPRD1 Gαi cell line
How it was run: as §1

[3] = SGF assay (stability in simulated gastric fluid); format: in vitro ADME; conditions: pig, simulated gastric fluid (SGF) with porcine pepsin, pH 2, pepsin, 37° C.
Description: SGF was prepared by adding 20 mg NaCl, 32 mg porcine pepsin (MP Biochemicals, catalog 02102599), and 70 μl HCl to 10 ml water (final pH=2). Aliquots of SGF (0.5 ml each) were pre-warmed at 37° C. To start the reaction, 1 μl of opioid agonist peptide stock solution (10 mM in DMSO) was added to 0.5 ml SGF and thoroughly mixed such that the final peptide concentration was 20 μM. The reactions were incubated at 37° C. with gentle shaking.
At each timepoint (0, 15, 30, 60 min) 50 µl aliquots were removed and added to 200 ul of acetonitrile containing 0.1% formic acid to quench the reaction. Samples were stored at 4° C. until the end of the experiment and centrifuged at 10,000 rpm for 5 minutes. Aliquots of the supernatant were removed, diluted 1:1 into distilled water containing internal standard, and analyzed by LCMS/MS. The percent of the opioid agonist peptide remaining at each timepoint was calculated based on the peak area response ratio of the opioid agonist peptide to the internal standard. Time 0 was set to 100%, and all later timepoints were calculated relative to time 0. Half-lives were calculated by fitting to a first-order exponential decay equation using GraphPad.

[4] = Plasma assay (stability in mouse plasma); format: in vitro ADME; conditions: 37° C.
Description: Peptides of interest (20 uM) were incubated with pre-warmed mouse plasma (BioreclamationIVT) at 37° C. Aliquots were taken at various time points up to 24 hours (e.g. 0, 0.25, 1, 3, 6 and 24 hr), and immediately quenched with 4 volumes of organic solvent (acetonitrile/methanol (1:1) and 0.1% formic acid, containing 1 μM internal standard). Quenched samples were stored at 4° C. until the end of the experiment and centrifuged at 17,000 g for 15 minutes. The supernatant was diluted 1:1 with deionized water and analyzed using LC-MS. Percentage remaining at each time point was calculated based on the peak area ratio (analyte over internal standard) relative to the initial level at time zero. Half-lives were calculated by fitting to a first-order exponential decay equation using Graph Pad Prism.

T2 sequence (P41143 whole entry): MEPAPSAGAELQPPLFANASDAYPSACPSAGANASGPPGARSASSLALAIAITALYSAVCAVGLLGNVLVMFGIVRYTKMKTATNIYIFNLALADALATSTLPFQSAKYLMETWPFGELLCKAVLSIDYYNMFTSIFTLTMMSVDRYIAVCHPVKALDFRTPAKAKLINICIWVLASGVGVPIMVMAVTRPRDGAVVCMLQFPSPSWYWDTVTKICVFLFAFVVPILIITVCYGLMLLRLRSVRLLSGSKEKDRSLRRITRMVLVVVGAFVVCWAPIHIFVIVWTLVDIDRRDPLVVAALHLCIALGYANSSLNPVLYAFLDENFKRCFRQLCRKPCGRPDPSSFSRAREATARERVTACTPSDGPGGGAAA
T1 sequence (P35372 whole entry): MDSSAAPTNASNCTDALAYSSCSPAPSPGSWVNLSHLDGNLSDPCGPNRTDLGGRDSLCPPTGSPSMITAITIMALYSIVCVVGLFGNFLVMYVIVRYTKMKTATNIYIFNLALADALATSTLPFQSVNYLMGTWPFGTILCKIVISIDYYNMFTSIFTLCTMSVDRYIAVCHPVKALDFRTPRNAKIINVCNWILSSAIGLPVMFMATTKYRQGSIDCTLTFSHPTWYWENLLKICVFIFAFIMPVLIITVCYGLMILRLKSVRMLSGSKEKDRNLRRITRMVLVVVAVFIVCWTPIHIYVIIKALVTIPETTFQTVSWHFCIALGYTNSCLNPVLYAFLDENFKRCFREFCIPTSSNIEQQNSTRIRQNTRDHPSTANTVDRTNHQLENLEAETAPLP

| Compound | SIF (min) ([1]; Table 4, SIF half-life) | % inhibition of GI motility ([2]; Table 4, orally dosed, charcoal transit) | inhibition of small intestine motility as compared to eluxadoline ([2]; orally administered, all doses tested, FIG. 1A) | inhibition of GI transit as compared to eluxadoline ([2]; orally administered, all doses tested, FIGS. 1B and 1C) | effect on pain (writhing study) (visceral pain (writhing); FIGS. 3A and 3B) | visceral pain (writhing study) (visceral pain (writhing); at 30 mg/kg and 10 mg/kg, FIGS. 2A and 2B) | EC50 (μ-opioid receptor (MOR)) [nM] | EC50 (δ-opioid receptor (DOR)) [nM] | half-life at 20 μM [3] [min] | half-life at 20 μM [1] [min] | half-life at 20 uM [4] [min] |
| --- | --- | --- | --- | --- | --- | --- | --- | --- | --- | --- | --- |
| Cc1cc(O)cc(C)c1C[C@H](N)C(=O)N[C@H](C)C(=O)NCC(=O)N[C@H](CC(=O)N(C)CC(N)=O)Cc1ccccc1 [Seq. ID 43, H-DMT-a-G-bhF-Sar-NH2] | **** (for SIF half-life values, **** indicates >1290) | ** (** indicates between 50% and 100%) | slightly greater inhibition of small intestine motility | greater inhibition of GI transit | positive effect | significantly reduced visceral pain |  |  |  |  |  |
| Cc1cc(O)cc(C)c1C[C@H](N)C(=O)N[C@H](CC(=O)O)C(=O)NCC(=O)N[C@H](CC(=O)N(C)CC(N)=O)Cc1ccccc1 [compound 83] |  |  |  |  |  |  | < 1 | < 1 | > 1440 | > 1440 | > 1440 |
| CCCC[C@H](NC(=O)[C@H](Cc1ccccc1)NC(=O)CNC(=O)[C@@H](C)NC(=O)[C@@H](N)Cc1c(C)cc(O)cc1C)C(N)=O [compound 37] |  |  |  |  |  |  |  |  | 10 to 360 | ≤ 10 | 360 to 1440 |
| Cc1cc(O)cc(C)c1C[C@H](N)C(=O)N[C@H](C)C(=O)NCC(=O)N[C@H](CC(=O)N(C)CC(N)=O)Cc1ccccc1 [compound 43] |  |  |  |  |  |  |  | < 1 | > 1440 | 360 to 1440 | 360 to 1440 |
